From US5928910A, “Antifungal substances BE-49385 and process for their production” (Banyu Pharmaceutical Co., Ltd., priority 1995, dated 1999)
≈ marks a conversion by molar mass, not a printed value.

Experiments:
Solubility = type: physicochemical
[1] = system: Kluyveromyces lactis IFO 1267; assay: MIC by agar dilution method, Kluyveromyces lactis IFO 1267; type: cell-based; conditions: IFO1267, 72 h, 28° C., 3 days, read-out: MIC (minimum inhibitory concentration)
Protocol: (§1) The minimum inhibitory concentrations of antifungal substances BE-49385 against various fungi were measured. The measurement of MIC was carried out by an agar dilution method using a culture medium prepared by mixing 900 ml of an agar solution containing 2.5 g of sterilized dipotassium hydrogenphosphate and 15 g of agar, with a solution obtained by dissolving 6.7 g of a yeast nitrogen base (manufactured by Difico Co.) and 10 g of glucose in 100 ml of purified water, followed by sterilization by means of sterilizing filter. BE-49385 was dissolved in dimethylsulfoxide to a concentration of 10 mg/ml and further diluted with dimethylsulfoxide to obtain a twice diluted series, and the dimethylsulfoxide concentration in the agar plate was adjusted to be 1%. On the prepared agar plate, 5 μl of the test strain solution adjusted to a concentration of 10^6 cells per 1 ml, was dropped, followed by culturing at 28° C. for 3 days, whereupon the growth was evaluated.
(§2) The minimum inhibitory concentrations (MIC, unit: μ g/ml) of antifungal substance BE-49385A against various fungi, are shown in Table 1, and MICs of BE-49385 substances against Schizosaccharomyces pombe IAM4863 are shown in Table

[2] = system: Saccharomyces cerevisiae IFO 1267; assay: MIC by agar dilution method, Saccharomyces cerevisiae IFO 1267; type: cell-based; conditions: IFO1267, 72 h, 28° C., 3 days, read-out: MIC (minimum inhibitory concentration)
Protocol: as §1, §2

[3] = system: Candida albicans IFO 1385; assay: MIC by agar dilution method, Candida albicans IFO 1385; type: cell-based; conditions: IFO1385, 72 h, 28° C., 3 days, read-out: MIC (minimum inhibitory concentration)
Protocol: as §1, §2

[4] = system: Candida albicans IFO 1270; assay: MIC by agar dilution method, Candida albicans IFO 1270; type: cell-based; conditions: IFO1270, 72 h, 28° C., 3 days, read-out: MIC (minimum inhibitory concentration)
Protocol: as §1, §2

[5] = system: Penicillium chrysogenum IFO 6223; assay: MIC by agar dilution method, Penicillium chrysogenum IFO 6223; type: cell-based; conditions: IFO6223, 72 h, 28° C., 3 days, read-out: MIC (minimum inhibitory concentration)
Protocol: as §1, §2

[6] = system: Aspergillus niger IFO 31012; assay: MIC by agar dilution method, Aspergillus niger IFO 31012; type: cell-based; conditions: IFO31012, 72 h, 28° C., 3 days, read-out: MIC (minimum inhibitory concentration)
Protocol: as §1, §2

[7] = system: Schizosaccharomyces pombe IAM4863; assay: MIC by agar dilution method, Schizosaccharomyces pombe IAM4863; type: cell-based; conditions: 72 h, 28° C., 3 days, read-out: MIC (minimum inhibitory concentration)
Protocol: as §1, §2

Structure (SMILES)	Solubility in an organic solvent such as methanol or dimethylsulfoxide (Solubility)	Solubility in water (Solubility)	MIC [1]	MIC [2]	MIC [3]	MIC [4]	MIC [5]	MIC [6]	MIC [7]
C=C1C2CC3C(C(C)C)C(OC(=O)CC(C)(O)CC(C)CC)CC3(C)CC2C(C)=CCC2C(C)OC(=O)C(OC(C)=O)C12O (stereo not drawn) [BE-49385A-Ac]	Readily soluble	hardly soluble							
C=C1C2CC3C(C(C)C)C(OC(=O)CC(C)(O)CC(C)CC)CC3(C)CC2C(C)=CCC2C(C)OC(=O)C(O)C12O (stereo not drawn) [BE-49385A]	Readily soluble	hardly soluble	0.78 µg/mL (≈ 1.36 µM)	3.13 µg/mL (≈ 5.45 µM)	3.13 µg/mL (≈ 5.45 µM)	0.78 µg/mL (≈ 1.36 µM)	0.39 µg/mL (≈ 0.678 µM)	0.78 µg/mL (≈ 1.36 µM)	< 0.1 µg/mL
C=C1C2CC3C(C(C)C)C(OC(=O)C(O)CC(C)CC(C)CC)CC3(C)CC2C(C)=CCC2C(C)OC(=O)C(O)C12O (stereo not drawn) [BE-49385B]	Readily soluble	hardly soluble							0.39 µg/mL (≈ 0.662 µM)
C=C1C2CC3C(C(C)C)C(OC(=O)CC(C)CC(C)CC)CC3(C)CC2C(C)=CCC2C(C)OC(=O)C(O)C12O (stereo not drawn) [BE-49385C]	Readily soluble	hardly soluble							0.39 µg/mL (≈ 0.698 µM)
C=C1C2CC3C(C(C)C)C(OC(=O)C(O)c4ccccc4)CC3(C)CC2C(C)=CCC2C(C)OC(=O)C(O)C12O (stereo not drawn) [BE-49385D]	Readily soluble	hardly soluble							0.78 µg/mL (≈ 1.41 µM)
C=C1C2CC3C(C(C)C)C(OC(=O)C(O)C(C)(O)CC(C)CC)CC3(C)CC2C(C)=CCC2C(C)OC(=O)C(O)C12O (stereo not drawn) [BE-49385E]	Readily soluble	hardly soluble							0.2 µg/mL (≈ 0.339 µM)
C=C1C2CC3C(C(C)C)C(O)CC3(C)CC2C(C)=CCC2C(C)OC(=O)C(O)C12O (stereo not drawn) [BE-49385F]	Readily soluble	hardly soluble							
C=C1C2CC3C(C(C)C)C(OC(=O)C(O)C(O)CCC(C)CC)CC3(C)CC2C(C)=CCC2C(C)OC(=O)C(O)C12O (stereo not drawn) [BE-49385G]	Readily soluble	hardly soluble							0.39 µg/mL (≈ 0.66 µM)
C=C1C2CC3C(C(C)C)C(OC(=O)C(O)C(O)C(C)CC(C)CC)CC3(C)CC2C(C)=CCC2C(C)OC(=O)C(O)C12O (stereo not drawn) [BE-49385H]	Readily soluble	hardly soluble							
